Key:
Format in all cases: in vivo
[1] = system: redroot pigweed (Amaranthus retroflexus, AMR); assay: Pre-emerge test, redroot pigweed; conditions: 250 g ai/ha, 14 days after application, rating scale 0-100 (0 no damage, 100 complete death)
In short: (§1)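 Pots (10 cm, sandy loam mix) were seeded one day ahead of spraying. Test materials, dissolved in acetone, went on at 8–1000 g ai/ha in a 187 l/ha spray volume. Damage was scored 14 days later from 0 (none) to 100 (total kill).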

[2] = system: velvetleaf (Abutilon theophrasti, ABT); assay: Pre-emerge test, velvetleaf; conditions: 250 g ai/ha, 14 days after application, rating scale 0-100 (0 no damage, 100 complete death)
In short: as §1

[3] = system: sicklepod (Cassia obtusifolia, CAO); assay: Pre-emerge test, sicklepod; conditions: 250 g ai/ha, 14 days after application, rating scale 0-100 (0 no damage, 100 complete death)
In short: as §1

[4] = system: ivyleaf morningglory (Ipomoea hederacea, IPH); assay: Pre-emerge test, ivyleaf morningglory; conditions: 250 g ai/ha, 14 days after application, rating scale 0-100 (0 no damage, 100 complete death)
In short: as §1

[5] = system: lambsquarters (Chenopodium album, CHA); assay: Pre-emerge test, lambsquarters; conditions: 250 g ai/ha, 14 days after application, rating scale 0-100 (0 no damage, 100 complete death)
In short: as §1

[6] = system: common ragweed (Ambrosia artemisiifolia L., AML); assay: Pre-emerge test, common ragweed; conditions: 250 g ai/ha, 14 days after application, rating scale 0-100 (0 no damage, 100 complete death)
In short: as §1

[7] = system: cocklebur (Xanthium strumariunt, XAS); assay: Pre-emerge test, cocklebur; conditions: 250 g ai/ha, 14 days after application, rating scale 0-100 (0 no damage, 100 complete death)
In short: as §1

[8] = system: green foxtail (Setaria viridis, SEV); assay: Pre-emerge test, green foxtail; conditions: 250 g ai/ha, 14 days after application, rating scale 0-100 (0 no damage, 100 complete death)
In short: as §1

[9] = system: barnyardgrass (Echinachloa crus-galli, ECC); assay: Pre-emerge test, barnyardgrass; conditions: 250 g ai/ha, 14 days after application, rating scale 0-100 (0 no damage, 100 complete death)
In short: as §1

[10] = system: johnsongrass (Sorghum halepense, SOH); assay: Pre-emerge test, johnsongrass; conditions: 250 g ai/ha, 14 days after application, rating scale 0-100 (0 no damage, 100 complete death)
In short: as §1

[11] = system: large crabgrass (Digitaria sanguinalis, DIS); assay: Pre-emerge test, large crabgrass; conditions: 250 g ai/ha, 14 days after application, rating scale 0-100 (0 no damage, 100 complete death)
In short: as §1

[12] = system: field corn (Zea mays L., var. Dekalb 535, CORN); assay: Pre-emerge test, crop damage field corn
In short: (§2)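 Seeds planted 1 day pre-application in sandy loam soil mix; acetone solutions sprayed at 8 to 1000 g ai/ha (187 l/ha, flat fan nozzle, track sprayer). 14 d later, visual damage scored on a 0–100 scale.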

[13] = system: soybean (Glycine max L., var. Pella 86, SOY); assay: Pre-emerge test, crop damage soybean
In short: as §2

[14] = system: upland rice (Oryza sp., var.Tebonnet, RICE); assay: Pre-emerge test, crop damage upland rice
In short: as §2

[15] = system: wheat (Triticum aestivum); assay: Pre-emerge test, crop damage wheat
In short: as §2

[16] = system: redroot pigweed (Amaranthus retroflexus, AMR); assay: Post-emerge test, redroot pigweed; conditions: 250 g ai/ha, 14 days after application, rating scale 0-100 (0 no damage, 100 complete death)
In short: (§3)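 A greenhouse foliar screen: the compound was applied over the top of 2-3 leaf plants by a flat-fan track sprayer at 8 to 1000 g ai/ha. It was delivered in acetone at 187 l/ha, with 0.25% v/v non-ionic surfactant added for leaf wetting. Injury was judged 14 days on, from 0 (none) to 100 (complete kill).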

[17] = system: velvetleaf (Abutilon theophrasti, ABT); assay: Post-emerge test, velvetleaf; conditions: 250 g ai/ha, 14 days after application, rating scale 0-100 (0 no damage, 100 complete death)
In short: as §3

[18] = system: sicklepod (Cassia obtusifolia, CAO); assay: Post-emerge test, sicklepod; conditions: 250 g ai/ha, 14 days after application, rating scale 0-100 (0 no damage, 100 complete death)
In short: as §3

[19] = system: ivyleaf morningglory (Ipomoea hederacea, IPH); assay: Post-emerge test, ivyleaf morningglory; conditions: 250 g ai/ha, 14 days after application, rating scale 0-100 (0 no damage, 100 complete death)
In short: as §3

[20] = system: lambsquarters (Chenopodium album, CHA); assay: Post-emerge test, lambsquarters; conditions: 250 g ai/ha, 14 days after application, rating scale 0-100 (0 no damage, 100 complete death)
In short: as §3

[21] = system: common ragweed (Ambrosia artemisiifolia L., AML); assay: Post-emerge test, common ragweed; conditions: 250 g ai/ha, 14 days after application, rating scale 0-100 (0 no damage, 100 complete death)
In short: as §3

[22] = system: cocklebur (Xanthium strumariunt, XAS); assay: Post-emerge test, cocklebur; conditions: 250 g ai/ha, 14 days after application, rating scale 0-100 (0 no damage, 100 complete death)
In short: as §3

[23] = system: green foxtail (Setaria viridis, SEV); assay: Post-emerge test, green foxtail; conditions: 250 g ai/ha, 14 days after application, rating scale 0-100 (0 no damage, 100 complete death)
In short: as §3

[24] = system: barnyardgrass (Echinachloa crus-galli, ECC); assay: Post-emerge test, barnyardgrass; conditions: 250 g ai/ha, 14 days after application, rating scale 0-100 (0 no damage, 100 complete death)
In short: as §3

[25] = system: johnsongrass (Sorghum halepense, SOH); assay: Post-emerge test, johnsongrass; conditions: 250 g ai/ha, 14 days after application, rating scale 0-100 (0 no damage, 100 complete death)
In short: as §3

[26] = system: large crabgrass (Digitaria sanguinalis, DIS); assay: Post-emerge test, large crabgrass; conditions: 250 g ai/ha, 14 days after application, rating scale 0-100 (0 no damage, 100 complete death)
In short: as §3

[27] = system: field corn (Zea mays L., var. Dekalb 535, CORN); assay: Post-emerge test, crop damage field corn
In short: as §3

[28] = system: soybean (Glycine max L., var. Pella 86, SOY); assay: Post-emerge test, crop damage soybean
In short: as §3

[29] = system: upland rice (Oryza sp., var.Tebonnet, RICE); assay: Post-emerge test, crop damage upland rice
In short: as §3

[30] = system: wheat (Triticum aestivum); assay: Post-emerge test, crop damage wheat
In short: as §3

[31] = pre-emerge, 250 g ai/ha, 14 days after application, rating scale 0-100 (0 no damage, 100 complete death)
[32] = post-emerge, 250 g ai/ha, 14 days after application, rating scale 0-100 (0 no damage, 100 complete death)
[33] = var. Dekalb 535, Zea mays (field corn), in vivo, 14 days
[34] = var. Pella 86, Glycine max (soybean), in vivo, 14 days
[35] = var. Tebonnet, Oryza sp. (upland rice), in vivo, 14 days
[36] = Triticum aestivum (wheat), in vivo, 14 days

| Structure (SMILES) | Pre-emerge Herbicidal Activity AMR (phytotoxicity rating) [1] | Pre-emerge Herbicidal Activity ABT (phytotoxicity rating) [2] | Pre-emerge Herbicidal Activity CAO (phytotoxicity rating) [3] | Pre-emerge Herbicidal Activity IPH (phytotoxicity rating) [4] | Pre-emerge Herbicidal Activity CHA (phytotoxicity rating) [5] | Pre-emerge Herbicidal Activity AML (phytotoxicity rating) [6] | Pre-emerge Herbicidal Activity XAS (phytotoxicity rating) [7] | Pre-emerge Herbicidal Activity SEV (phytotoxicity rating) [8] | Pre-emerge Herbicidal Activity ECC (phytotoxicity rating) [9] | Pre-emerge Herbicidal Activity SOH (phytotoxicity rating) [10] | Pre-emerge Herbicidal Activity DIS (phytotoxicity rating) [11] | Post-emerge Herbicidal Activity AMR (phytotoxicity rating) [16] | Post-emerge Herbicidal Activity ABT (phytotoxicity rating) [17] | Post-emerge Herbicidal Activity CAO (phytotoxicity rating) [18] | Post-emerge Herbicidal Activity IPH (phytotoxicity rating) [19] | Post-emerge Herbicidal Activity CHA (phytotoxicity rating) [20] | Post-emerge Herbicidal Activity AML (phytotoxicity rating) [21] | Post-emerge Herbicidal Activity XAS (phytotoxicity rating) [22] | Post-emerge Herbicidal Activity SEV (phytotoxicity rating) [23] | Post-emerge Herbicidal Activity ECC (phytotoxicity rating) [24] | further results |
| --- | --- | --- | --- | --- | --- | --- | --- | --- | --- | --- | --- | --- | --- | --- | --- | --- | --- | --- | --- | --- | --- |
| CC1C(=O)Nc2c(-c3nn(C)c(C(F)(F)F)c3Cl)c(F)cc3c2N1C(=O)C(C)(C)O3 (stereo not drawn) [1-54] | 100 | 100 | 99 | 75 | 100 | 95 | 90 | 98 | 85 | 99 | 95 | 80 | 100 | 40 | 60 | 99 | 80 | 65 | 65 | 0 | Pre-emerge crop damage CORN (phytotoxicity rating) [12, 31]: 55; Pre-emerge crop damage SOY (phytotoxicity rating) [13, 31]: 55; Pre-emerge crop damage RICE (phytotoxicity rating) [14, 31]: 0; Pre-emerge crop damage WHEAT (phytotoxicity rating) [15, 31]: 0; Post-emerge Herbicidal Activity SOH (phytotoxicity rating) [25]: 0; Post-emerge Herbicidal Activity DIS (phytotoxicity rating) [26]: 0; Post-emerge crop damage CORN (phytotoxicity rating) [27, 32]: 0; Post-emerge crop damage SOY (phytotoxicity rating) [28, 32]: 45; Post-emerge crop damage RICE (phytotoxicity rating) [29, 32]: 0; Post-emerge crop damage WHEAT (phytotoxicity rating) [30, 32]: 0 |
| C[C@H]1Oc2cc(F)c(-c3nn(C)c(OC(F)F)c3Cl)c3c2N(CC(=O)N3)C1=O [1-55, 8-[-4-Chloro-5-(difluoromethoxy)-1-methyl-1H-pyrazol-3-yl)-9-fluoro-2-R-methyl-5H-pyrazino[1,2,3-de]-1,4-benzoxazine-3,6(2H, 7H)-dione] | 100 | 99 | 100 | 100 | 100 | 100 | 95 | 100 | 100 | 100 | 100 | 100 | 100 | 99 | 100 | 100 | 85 | 100 | 99 | 95 | Pre-emerge crop damage CORN (phytotoxicity rating) [12, 33]: 20; Pre-emerge crop damage SOY (phytotoxicity rating) [13, 34]: 60; Pre-emerge crop damage RICE (phytotoxicity rating) [14, 35]: 40; Pre-emerge crop damage WHEAT (phytotoxicity rating) [15, 36]: 3; Post-emerge Herbicidal Activity SOH (phytotoxicity rating) [25]: 50; Post-emerge Herbicidal Activity DIS (phytotoxicity rating) [26]: 35; Post-emerge crop damage CORN (phytotoxicity rating) [27, 33]: 15; Post-emerge crop damage SOY (phytotoxicity rating) [28, 34]: 75; Post-emerge crop damage RICE (phytotoxicity rating) [29, 35]: 75; Post-emerge crop damage WHEAT (phytotoxicity rating) [30, 36]: 50 |
| CC1Oc2cc(F)c(-c3nn(C)c(OC(F)F)c3Cl)c3c2N(CC(=O)N3)C1=O (stereo not drawn) [1-56] | 100 | 100 | 100 | 100 | 100 | 100 | 100 | 100 | 100 | 100 | 100 | 100 | 100 | 100 | 100 | 100 | 100 | 100 | 100 | 100 | Pre-emerge crop damage CORN (phytotoxicity rating) [12, 31]: 50; Pre-emerge crop damage SOY (phytotoxicity rating) [13, 31]: 15; Pre-emerge crop damage RICE (phytotoxicity rating) [14, 31]: 75; Pre-emerge crop damage WHEAT (phytotoxicity rating) [15, 31]: 55; Post-emerge Herbicidal Activity SOH (phytotoxicity rating) [25]: 85; Post-emerge Herbicidal Activity DIS (phytotoxicity rating) [26]: 100; Post-emerge crop damage CORN (phytotoxicity rating) [27, 32]: 20; Post-emerge crop damage SOY (phytotoxicity rating) [28, 32]: 100; Post-emerge crop damage RICE (phytotoxicity rating) [29, 32]: 99; Post-emerge crop damage WHEAT (phytotoxicity rating) [30, 32]: 30 |
| Cn1nc(-c2c(F)cc3c4c2NC(=O)CN4C(=O)C(C)(C)O3)c(Cl)c1OC(F)F [1-59] | 100 | 100 | 99 | 85 | 100 | 100 | 60 | 100 | 99 | 100 | 99 | 100 | 100 | 70 | 100 | 100 | 80 | 100 | 99 | 99 | Pre-emerge crop damage CORN (phytotoxicity rating) [12, 31]: 40; Pre-emerge crop damage SOY (phytotoxicity rating) [13, 31]: 15; Pre-emerge crop damage RICE (phytotoxicity rating) [14, 31]: 50; Pre-emerge crop damage WHEAT (phytotoxicity rating) [15, 31]: 45; Post-emerge Herbicidal Activity SOH (phytotoxicity rating) [25]: 65; Post-emerge Herbicidal Activity DIS (phytotoxicity rating) [26]: 99; Post-emerge crop damage CORN (phytotoxicity rating) [27, 32]: 10; Post-emerge crop damage SOY (phytotoxicity rating) [28, 32]: 45; Post-emerge crop damage RICE (phytotoxicity rating) [29, 32]: 55; Post-emerge crop damage WHEAT (phytotoxicity rating) [30, 32]: 35 |

Source: patent publication US6770596B1, “Fused tricyclic compounds, process for their preparation, and herbicidal compositions containing them” (Ishihara Sangyo Kaisha Ltd., priority 2002, dated 2004)
